According to US12458630B2, “Combination therapy for cancer” (The Regents of the University of California, priority 2020, dated 2025):

Tests used:
AKT phosphorylation = assay: Immunoblot of AKT phosphorylation; format: cell-based, human; conditions: NRF2(E79Q)-Myc-overexpressing MIA PaCa-2 cells, 600 nM IPI549
Procedure: (§1) Immunoblot and immunoprecipitation. Cells were harvested and lysed in RIPA buffer (50 mM Tris-HCl, pH 7.4, 150 mM NaCl, 1% Triton X-100, 1% Na deoxycholate, 0.1% SDS, 1 mM EDTA) supplemented with complete protease inhibitor cocktail. Proteins were resolved on SDS-polyacrylamide gels, and then transferred to a polyvinylidene difluoride membrane. After blocking with 5% (w/v) fat free milk, the membrane was stained with the corresponding primary antibodies followed by incubation with the appropriate secondary HRP-conjugated antibodies, and development with ECL. Immunoreactive bands were detected by automatic X-ray film processor or KwikQuant Imager.

KC6141 mouse PDAC cells = assay: Cell viability assay (CCK-8); format: cell-based; conditions: WT and IKKα KD 6141 cells on ECM, 0.5 mM glucose, 3 days; EIPA, IPI549 600 nM, MBQ-167 500 nM
Procedure: Extracellular Matrix (ECM) Preparation. Skin fibroblasts were seeded on 6/12/96-well plates. One day after plating, cells were switched into DMEM (with pyruvate) with 10% dialysed FBS supplemented with or without 500 μM ^3H-proline and 100 μM Vitamin C. Cells were cultured for 6 days with media renewal every 24 h. After six days, skin fibroblasts were removed by washing in 1 ml or 500 μl or 100 μl per well PBS with 0.5% (v/v) Triton X-100 and 20 mM NH4OH. ECM was washed five times with PBS before plating KC6141 cells. The following day, KC6141 cells were switched into the indicated medium for 24 or 72 hrs.
Cell viability assay. Cell viability was determined with Cell Counting Kit-8 assay (CCK-8 assay kit, Glpbio). Cells were plated in 96-well plates at a density of 3000 cells (MIA PaCa-2) or 1500 cells (KC6141) per well and incubated overnight prior to treatment. EIPA (10 μM), MRT68921 (600 nM) or erlotinib (2 μM, Sigma) were added to the wells for 72 and 96 hrs. Next, 10 μL of CCK-8 was added to each well. The optical density was read at 450 nm using a microplate reader (FilterMax F5, Molecular Devices, USA) at day 0, 1, 2, 3, and 4. For glutamine-deprivation assays, cells in 96-well plates were rinsed briefly in PBS and incubated in the 0.2 mM glutamine. Glutamine-free DMEM medium was supplemented with 0.2 mM glutamine in the presence of 10% dialysed FBS and 25 mM HEPES. For some conditions, the medium was supplemented with a final concentration of 2% BSA (Fraction V, fatty-acid-, nuclease and protease-free, Calbiochem). For all experiments, media were replaced every 24 hrs. Viable cell counts were obtained using CCK-8 assay described as above.
(§2) In some embodiments, cells were plated in 96-well plates coated with or without ECM at a density of 3000 cells (MIA PaCa-2, 1444, 1305, COLO 357/FG) or 1500 cells (KC6141) per well and incubated overnight prior to treatment. EIPA (10.5 μM), IPI549 (600 nM), MBQ-167 (500 nM), MRT68921 (600 nM) or erlotinib (2 μM, Sigma), ML385 (10 μM, Sigma), HCQ (10 μM or 80 μM) or their combinations were added to the wells for 24, 72 or 96 hrs. Next, 10 μL of CCK-8 was added to each well. The optical density was read at 450 nm using a microplate reader (FilterMax F5, Molecular Devices, USA) at day 0, 1, 2, 3, and 4. For glutamine-deprivation assays, cells in 96-well plates were rinsed briefly in PBS and incubated in the 0.2 mM glutamine. Glutamine-free DMEM medium was supplemented with 0.2 mM glutamine in the presence of 10% dialyzed FBS and 25 mM HEPES. For glucose-deprivation assays, cells in 96-well plates were rinsed briefly in PBS and incubated in the 0.5 mM glucose. Glucose-free DMEM medium was supplemented with 0.5 mM glucose in the presence of 10% dialyzed FBS and 25 mM HEPES. For some conditions, the medium was supplemented with a final concentration of 2% BSA (Fraction V, fatty-acid-, nuclease and protease-free, Calbiochem). For all experiments, media were replaced every 24 hrs. Viable cell counts were obtained using CCK-8 assay described as above.

MP-related proteins = assay: Immunoblot of MP-related proteins in BxPC3 cells; format: cell-based, human; conditions: WT and IKKα KO BxPC3 cells, ML385 10 μM, 24 hrs
Procedure: as §1

BxPC3 cells = assay: TMR-DEX macropinosome uptake assay; format: cell-based, human; conditions: WT and IKKα KO BxPC3 cells (WT KRAS), ML385 10 μM, 24 hrs
Procedure: Cell imaging. […] Cells were cultured on coverslips and fixed in 4% PFA for 10 min at room temperature. After washing twice in PBS, cells were incubated in PBS containing 10% FBS to block nonspecific sites of antibody adsorption. The cells were then incubated with the appropriate primary antibodies (diluted 1:100) and secondary antibodies (diluted 1:500) in PBS containing 10% FBS with or without 0.1% saponin. For cell macropinosome visualization, 24 hrs after seeding, the cells were serum starved for 18 hrs. […] At the end of the incubation period, the cells were rinsed five times in cold PBS and immediately fixed in 4% PFA. For tissue macropinosome visualization^45, fresh pancreata were cut into pieces with an approximate 5-mm cuboidal shape. […]
Quantification and statistics. To quantify the number of LC3 puncta, a total of 30 cells were recorded and analyzed using the LAS X measurement program on the TCS SPE Leica. Macropinosomes were quantified by using the ‘Analyze Particles’ feature in ImageJ (National Institutes of Health). […]
In some embodiments, to quantify LC3 puncta or LC3-LAMP1 co-localization, a total of 30 cells were recorded and analyzed using the LAS X measurement program on the TCS SPE Leica. Macropinosomes were quantified by using the ‘Analyze Particles’ feature in Image J (National Institutes of Health). […]

[1] = system: 1305 primary human PDAC cells; assay: Cell viability assay (CCK-8); format: cell-based; conditions: IKKα^low 1305 cells, 3 days
Procedure: as §2

| SMILES | AKT phosphorylation (AKT phosphorylation) | cell viability enhanced by extracellular matrix (ECM) (KC6141 mouse PDAC cells) | MP-related protein expression increased by IKKα ablation (MP-related proteins) | TMR-DEX uptake increased by IKKα ablation (BxPC3 cells) | sensitivity to single agent (cell viability) [1] |
| --- | --- | --- | --- | --- | --- |
| C[C@H](NC(=O)c1c(N)nn2cccnc12)c1cc2cccc(C#Cc3cnn(C)c3)c2c(=O)n1-c1ccccc1 [IPI549] | suppression of AKT phosphorylation | suppressed |  |  |  |
| Cc1ccccc1C(=O)N1CCc2cc(-c3nc(NC(=O)Cc4ccc5c(c4)OCO5)sc3C)ccc21 [ML385] |  |  | blocked this effect | blocked this effect | very sensitive |
